This passage reports IC50 results from ChEMBL document CHEMBL4138278, “Neothioviridamide, a Polythioamide Compound Produced by Heterologous Expression of a Streptomyces sp. Cryptic RiPP Biosynthetic Gene Cluster” (J Nat Prod, 2018).

Each structure is given as a SMILES string.

Format in all cases: functional, cell-based
Assay [1] is described as follows: Cytotoxicity against human ACC-MESO1 cells assessed as reduction in cell viability after 72 hrs by CellTiter-Glo luminescence assay. To be noted: ACC-MESO-1, 72 h.
The test system of assay [2] is SK-OV-3. Nature of the assay: Cytotoxicity against human SKOV3 cells assessed as reduction in cell viability after 72 hrs by CellTiter-Glo luminescence assay. The conditions noted are these: SK-OV-3, 72 h.
Assay [3] deals with Jurkat. Nature of the assay: Cytotoxicity against human Jurkat cells assessed as reduction in cell viability after 72 hrs by CellTiter-Glo luminescence assay.

Regarding `CSCCC(NC(=S)C(NC(=O)C(C)=O)C(C)C)C(=S)NC(C)C(=O)NC(C)C(=S)NC(C)C(=S)NC(C)C(=O)NC1C(=O)NC(C(C)C)C(=O)NC(C)C(=O)NC(Cc2ccccc2)C(=O)NC(C(O)c2cn(C)c[n+]2C)C(=O)N/C=C\SC1C` (stereo not drawn), the IC50 in assay [1] was 700 nM; in assay [2], 2100 nM; in assay [3], 400 nM.
